Laboratory results from patent EP0349431B1, “Sucrose derivatives” (BEGHIN-SAY SOCIETE ANONYME, priority 1988, dated 1990).

Key:
Type in all cases: cell-based
[1] = tested on: Escherichia coli (ATCC 10536); experiment: Bacteriostatic activity (CMI), dilution technique in liquid medium, Exemple 9; conditions: read after 24 H incubation at 35°C
Protocol: (§1) On a préparé des mélanges de solutions limpides de l'échantillon et du milieu de culture, contenant un adjuvant de dissolution, ajouté à raison de la quantité minimale nécessaire.
(§2) On a introduit les solutions obtenues telles quelles ou diluées dans des tubes stériles sous un volume inférieur ou égal à 2,5 ml, que l'on a ensuite ajusté sinécessaire à 2,5 ml à l'aide d'eau stérile. On a alors ajouté à chaque tube 2,5 ml de bouillon nutritif préparé à concentration double, ensemencé de façon à contenir environ 1000 germes par ml et ayant la composition suivante : peptone bactériologique 10 g extrait de viande de boeuf 5 g chlorure de sodium 5 g eau déminéralisèe Q S P 500 ml pH ajusté à 7,2 à l'aide de potasse. stérilisation par fractions de 50 ml 20 mn à 120°C
(§3) Les souches testées sont cultivées sur milieu gélosé "trypticase-soja" dont la compositon de formulation : peptone trypsique de caséine 15 g peptone papaïnique de soja 5 g chlorure de sodium 5 g gélose 15 g eau déminéralisée Q S P 1000 ml pH ajusté à l'aide de potasse à 7,3 stérilisation 20 mn à 120°C.
(§4) Après incubation 18 H à 35°C on ensemence à l'aide de ces cultures des tubes de milieu liquide "trypticase-soja" de formulation : peptone trypsique de caséine 17 g peptone papaïnique de soja 3 g chlorure de sodium 5 g phosphate dipotassique 2,5 g glucose 2,5 g eau déminéralisée Q S P 1000 ml pH ajusté à 7,3 à l'aide de potasse stérilisation 20 mn à 120°C.
(§5) Après 18 H d'incubation à 35°C, les cultures obtenues sont homogénéisées puis diluées.
(§6) Les quatres souches suivantes ont été testées : • Streptoccus fecalis (ATCC 9790) • Escherichia coli (ATCC 10536) • Proteus morganii (ATCC 53185) • Staphylococcus (ATCC 6538P)
(§7) On a effectué trois essais, en utilisant les gammes de concentrations suivantes de dipalmitate-6,6′-saccharose oxydé
(§8) On a effectué l'incubation des tubes à 35°C. Les lectures ont été faites après 18, 24 et 48 H en comparaison avec des tubes témoins de croissance de chaque microorganisme testé, en présence d'un agent tensio-actif : Tween 80 (marque de fabrique d'Atlas Chemical Industries, Inc) pour l'essai N° 1 et Triton X 100, (marque de fabrique de Rohm & Haas Co) pour les essais N°2 et N°3. Les résultats, donnés dans le Tableau I ci-dessous, relevés après 24 H d'incubation, indiquent la concentration (mg/ml) testée en dipalmitate-6,6′-saccharose oxydé à partir de laquelle on observe une absence de développement bactérien pour chacune des souches étudiées.

[2] = tested on: Proteus morganii (ATCC 53185); experiment: as above; conditions: read after 24 H incubation at 35°C
Protocol: as §1, §2, §3, §4, §5, §6, §7, §8

[3] = tested on: Staphylococcus (ATCC 6538P); experiment: as above; conditions: for concentration à partir de laquelle on observe une absence de développement bactérien: Triton X 100, read after 24 H incubation at 35°C
Protocol: as §1, §2, §3, §4, §5, §6, §7, §8

[4] = tested on: Streptoccus fecalis (ATCC 9790); experiment: as above; conditions: read after 24 H incubation at 35°C
Protocol: as §1, §2, §3, §4, §5, §6, §7, §8

[5] = tested on: souches étudiées (Streptoccus fecalis, Escherichia coli, Proteus morganii, Staphylococcus); experiment: Bacteriostatic activity (CMI), overall statement for the strains of Exemple 9; conditions: summary sentence in the text: good bacteriostatic activity, all strains of Exemple 9
Protocol: as §1, §2
as §3, with “120°C. […]” for “120°C.”

[6] = Essai N°1, Tween 80, tested 0,1 - 1 - 10 mg/ml
[7] = Essai N°2, Triton X 100, tested 0,1 - 1,6 mg/ml
[8] = Essai N°3, Triton X 100, tested 0,006 - 3,2 mg/ml

Substance: dipalmitate-6,6′-saccharose oxydé
- concentration à partir de laquelle on observe une absence de développement bactérien [1, 6]: 1 mg/mL
- concentration à partir de laquelle on observe une absence de développement bactérien [1, 7]: 0,8 mg/ml
- concentration à partir de laquelle on observe une absence de développement bactérien [1, 8]: 1,6 mg/ml
- concentration à partir de laquelle on observe une absence de développement bactérien [2, 6]: 1 mg/mL
- concentration à partir de laquelle on observe une absence de développement bactérien [2, 7]: 0,2 mg/ml
- concentration à partir de laquelle on observe une absence de développement bactérien [2, 8]: 0,2 mg/ml
- concentration à partir de laquelle on observe une absence de développement bactérien ([3]; Essai N°2, tested 0,1 - 1,6 mg/ml): < 0,1 mg/ml
- concentration à partir de laquelle on observe une absence de développement bactérien ([3]; Essai N°3, tested 0,006 - 3,2 mg/ml): 0,01 mg/ml
- concentration suffisante pour inhiber son développement ([3]; summary sentence in the text on Exemple 9): ≤ 0,01 mg/ml
- concentration à partir de laquelle on observe une absence de développement bactérien [4, 6]: 1 mg/mL
- concentration à partir de laquelle on observe une absence de développement bactérien [4, 7]: 0,8 mg/ml
- concentration à partir de laquelle on observe une absence de développement bactérien [4, 8]: 0,8 mg/ml
- concentration minimale inhibitrice (CMI) [5]: 1,6 mg/ml
